According to patent US20210038668A1, “TRADITIONAL CHINESE MEDICINE COMPOSITION FOR PREVENTING AND/OR TREATING ISCHEMIC REPERFUSION INJURY” (TASLY PHARMACEUTICAL GROUP CO., LTD., priority 2018, published 2021):

What was measured:
[1] = system: Occludin; assay: Western blotting of Occludin, cortex of ischemic penumbra; type: in vivo, C57BL/6 mice; details: brain tissue 24 hours after administration, sham = 1.00; tPA 10 mg/kg alone; T541 20 mg/kg + tPA 10 mg/kg
Procedure: After reperfused for 24 hours, mice were perfused by normal saline; Western blotting analysis was conducted to the penumbra field of infarcted right cerebral cortex. After perfused, mice brain tissue was taken out; cerebellum and prefrontal lobe were cut off; the brain tissue of right brain close to 1 cm of the central joint of left and right hemispheres along the sagittal view; infarcted penumbra field of the rest tissues was cut off along an 45° angle; the cerebral cortex of the penumbra field was peeled off and preserved at low temperature. Right cerebral cortex was taken and added 1×RIPA lysate and a Cocktail protease inhibitor (1:100, Cell Signaling Technology, US) for full pyrolysis and ultrasonic treatment, and then 17000 g were centrifuged for 30 minutes. Supernatant was taken and added 5×loading buffer by volume, boiled for 20 minutes in boiling water, and then preserved at −80° C. Excessive supernatant was taken out and quantified by a BCA protein quantification liquor (ThermoScientific, US) to measure absorbance value at 560 nm of ELIASA and to calculate the protein concentration according to a standard curve. […] The density of electrophoretic strips was analyzed by an image analysis software Quantityone. […]

[2] = system: Bax; assay: Western blotting of Bax in brain tissue; type: in vivo, C57BL/6 mice; details: brain tissue 24 h after administration, sham = 1.00; tPA 10 mg/kg alone or + T541 20 mg/kg or ingredients at Table 7 doses
Description: To compare the therapeutical effect on reperfusion injury caused by tPA thrombolysis between the traditional Chinese medicinal composition of the present invention and each ingredient (total saponins of Astragalus, the experiment was divided into the following group (tPA is combined with T541, individual ingredient thereof and compatibility of any two ingredients) specifically as follows: tPA+total saponins of Astragalus (tPA+HQ), tPA+ salvianolic acids (tPA+DS), tPA+Panax notoginseng saponins (tPA+SQ), tPA+ total saponins of Astragalus+salvianolic acids (tPA+HQ+DS), tPA+ total saponins of Astragalus+Panax notoginseng saponins (tPA+HQ+SQ), tPA+ salvianolic acids+Panax notoginseng saponins (tPA+DS+SQ) and tPA+T541. Normal saline served as an isovolumetric control. The usage number in each group is 6.
After reperfused for 24 hours, mice were perfused by normal saline; Western blotting analysis was conducted to the penumbra field of infarcted right cerebral cortex. […] Excessive supernatant was taken out and quantified by a BCA protein quantification liquor (ThermoScientific, US) to measure absorbance value at 560 nm of ELIASA and to calculate the protein concentration according to a standard curve. […] The density of electrophoretic strips was analyzed by an image analysis software Quantityone. […]

tPA: tissue-type plasminogen activator (tPA) for thrombolysis
Occludin/β-actin [1]: 0.38 ± 0.02
Bax [2]: 5.52 ± 0.78
Bax/Bcl-2 [2]: 3.82 ± 0.57
